Measurements: patent US10626081B2, “Farnesoid X receptor agonists and uses thereof” (Metacrine, Inc., priority 2015, dated 2020)

How the values were obtained:
[1] = molecular target: T1, FXR (Homo sapiens, UniProt Q96RI1); experiment: In Vitro FXR Assay (PGL3): luciferase reporter in transfected CV-1 cells; format: cell-based; settings: CV-1 cells transfected with hFXR, hRXR, PGL3-ECRE*6-luc; 18 h incubation; luminescence
T1 construct: expressed in transfected cells; host or cells: CV-1 cells
T1 sequence (Q96RI1 1-486): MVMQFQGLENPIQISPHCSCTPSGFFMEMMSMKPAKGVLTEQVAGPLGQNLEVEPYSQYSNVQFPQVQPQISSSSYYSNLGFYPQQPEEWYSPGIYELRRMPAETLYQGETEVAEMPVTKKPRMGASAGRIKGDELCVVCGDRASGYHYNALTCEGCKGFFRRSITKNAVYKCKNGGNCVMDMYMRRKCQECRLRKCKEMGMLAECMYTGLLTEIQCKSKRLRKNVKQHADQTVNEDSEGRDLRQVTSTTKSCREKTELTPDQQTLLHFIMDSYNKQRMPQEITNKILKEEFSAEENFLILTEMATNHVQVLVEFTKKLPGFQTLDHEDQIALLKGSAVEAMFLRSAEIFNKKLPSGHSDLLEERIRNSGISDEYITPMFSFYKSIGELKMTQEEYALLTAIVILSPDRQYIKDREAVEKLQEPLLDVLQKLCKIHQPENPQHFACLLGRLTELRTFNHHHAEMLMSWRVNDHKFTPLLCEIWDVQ
T1 sequence (P19793 1-462 partner): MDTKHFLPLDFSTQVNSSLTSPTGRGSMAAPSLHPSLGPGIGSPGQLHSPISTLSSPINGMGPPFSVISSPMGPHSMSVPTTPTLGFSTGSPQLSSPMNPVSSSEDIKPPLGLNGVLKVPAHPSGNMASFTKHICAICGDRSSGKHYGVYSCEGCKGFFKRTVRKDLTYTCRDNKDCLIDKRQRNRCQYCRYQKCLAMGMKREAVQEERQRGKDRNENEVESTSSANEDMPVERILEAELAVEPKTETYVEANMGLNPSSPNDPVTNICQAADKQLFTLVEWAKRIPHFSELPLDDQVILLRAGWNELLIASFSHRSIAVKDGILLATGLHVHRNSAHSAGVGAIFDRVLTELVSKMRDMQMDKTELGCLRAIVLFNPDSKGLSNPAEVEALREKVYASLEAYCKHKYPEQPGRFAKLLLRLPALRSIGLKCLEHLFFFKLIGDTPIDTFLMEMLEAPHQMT
Experimental: Example B-1: In Vitro FXR Assay (PGL3)
CV-1 cells were seeded at a density of 2,000,000 cells in a T175 flask with DMEM+10% charcoal double-stripped FBS and incubated at 37° C. in a 5% CO2 for 18 h (O/N).
After 18 h of incubation, the medium in the T175 flask was changed with fresh DMEM+10% charcoal super-stripped serum.
To prepare the transfection reaction mixture, the transfection reagent (X-tremeGENE HP from Roche, Cat #06 366 236 001) was added in to a 1.5 mL microcentrifuge tube labelled “A” at a ratio of 1:3 (DNA in transfection reagent in μL). OptiMEM medium (Life Technologies, Cat #31985-062) was added accordingly to provide a total volume of 1 mL. The transfection reaction mixture was then briefly vortexed and incubated at room temperature for 5 minutes.
In a separate 1.5 mL microcentrifuge tube labelled “B”, 100 μL OptiMEM and plasmids XPD90Gal pCMXhFXRfl, pCMXhRXRfl+PGL3-ECRE*6-luc+CMX-YFP in the ratio 2 μg:2 μg:18 μg:3 μg were added. This microcentrifuge tube “B” was then briefly vortexed and incubated at room temperature for 5 minutes.
The total volume in tube labelled “A” was then transferred in to tube labelled “B.” The mixture was then briefly vortexed and the transfection:DNA complex was then incubated for about 15-20 minutes at room temperature.
Following incubation, the transfection reagent/DNA mixture complex was then added to cells in the T175 flask and the cells were incubated at […] (O/N) at 37° C. in 5% CO2.
In a 96 well plate, a half logarithmic serial dilution was prepared. OptiMEM was used as the diluent. Using any of one of the compounds described herein, a compound stock solution of 10 mM was prepared. An initial 1:100 dilution was made into the first well for a final concentration of 100 μM. The final concentrations in the 96-well plate was prepared by using a multichannel pipette to transfer 5 μL of the diluted compound to 384-well plate in quadruplicate.
Cells in T175 flask were trypsinized and cells were resuspended in 40 mL phenol red free DMEM+10% charcoal super-stripped FBS. Typically, one T175 flask was sufficient to seed two 384 well plates. CV-1 cells were seeded at 45 μL cell suspension/well using a multi-channel pipet or a 384 multidrop dispenser. The cells were then incubated for 18 hrs, overnight.
After removing the plates from the incubator, the medium was flicked out of plate and 384 well plate was turned upside down onto paper towel. The remaining medium was gently tapped out. 15 μL lysis buffer was then added to each well using a multichannel pipet or a 384 well multi-drop dispenser. After incubation for 10 minutes at room temperature on shaker, 30 μL Luciferase buffer was added to each well. Luminescence counts were taken immediately using the Perkin Elmer Envision.
The ability of the compounds disclosed herein to […] FXR activity was quantified and the respective EC50 value was determined. Fex=fexaramine.

[2] = molecular target: T1, FXR; experiment: In Vitro FXR Assay (TK): TK-ECRE-luc reporter in transfected CV-1 cells; format: cell-based; settings: CV-1 cells transfected with hFXR, hRXR, 18 h incubation, luminescence
Outline: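 Luciferase read-out from lysed CV-1 cells exposed 18 h to DMSO-diluted compounds. Cells had been transfected overnight with expression plasmids for hFXR and hRXR plus TK-ECRE-luc reporter and pCMX-YFP, grown in charcoal-stripped serum at 37 °C, 5% CO2.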

Row | Structure (SMILES) | Cmpd/Fex (ratio of the EC50 for the test compound relative to the EC50 of the Fexaramine control) [1] | EC50 [2] [nM]
1 | COC(=O)/C=C/c1cccc(N(Cc2ccc(-c3ccc(N(C)C)cc3)cc2)C(=O)C2CCC2)c1 [compound 15, (E)-Methyl 3-(3-(N-((4′-(dimethylamino)-[1,1′-biphenyl]-4-yl)methyl)cyclobutanecarboxamido)phenyl) acrylate] | +++ (‘+++’ means Cmpd/Fex < 10) | 1000 to 10000
2 | COC(=O)/C=C/c1cccc(N(Cc2ccc(-c3ccc4c(ccn4C)c3)cc2)C(=O)C2CCCCC2)c1 [compound 62, (E)-Methyl 3-(3-(N-(4-(1-methyl-1H-indol-5-yl)benzyl)cyclohexanecarboxamido)phenyl) acrylate] | +++ (‘+++’ means Cmpd/Fex < 10) | ≤ 1000
3 | COC(=O)/C=C/c1cccc(N(Cc2ccc(-c3ccc(C)c(OC)c3)cc2)C(=O)C2CCCCC2)c1 [compound 58, (E)-Methyl 3-(3-(N-((3′-methoxy-4′-methyl-[1,1′-biphenyl]-4-yl)methyl)cyclohexanecarboxamido)phenyl) acrylate] | +++ (‘+++’ means Cmpd/Fex < 10) | 1000 to 10000
4 | COC(=O)/C=C/c1cccc(N(Cc2ccc(-c3ccc(C#N)cc3)cc2)C(=O)C2CCCCC2)c1 [compound 23, (E)-Methyl 3-(3-(N-((4′-cyano-[1,1′-biphenyl]-4-yl)methyl)cyclohexanecarboxamido)phenyl)acrylate] | +++ (‘+++’ means Cmpd/Fex < 10) | 1000 to 10000
5 | COC(=O)/C=C/c1cccc(N(Cc2ccc(-c3ccc(N(C)C)c(F)c3)cc2)C(=O)C2CCCCC2)c1 [compound 73, (E)-Methyl 3-(3-(N-((4′-(dimethylamino)-3′-fluoro-[1,1′-biphenyl]-4-yl)methyl)cyclohexanecarboxamido)phenyl) acrylate] | +++ (‘+++’ means Cmpd/Fex < 10) | ≤ 1000
6 | COC(=O)/C=C/c1cccc(N(Cc2ccc(-c3cccc(C#N)c3)cc2)C(=O)C2CCCCC2)c1 [compound 24, (E)-Methyl 3-(3-(N-((3′-cyano-[1,1′-biphenyl]-4-yl)methyl)cyclohexanecarboxamido)phenyl)acrylate] | +++ (‘+++’ means Cmpd/Fex < 10) | ≤ 1000
7 | COC(=O)/C=C/c1cccc(N(Cc2cccc3ccccc23)C(=O)C2CCCCC2)c1 [compound 80, (E)-Methyl 3-(3-(N-(naphthalen-1-ylmethyl)cyclohexanecarboxamido)phenyl) acrylate] | + (‘+’ means Cmpd/Fex > 100) | > 10000
8 | C=C(C)c1ccc(-c2ccc(CN(C(=O)C3CCCCC3)c3cccc(/C=C/C(=O)OC)c3)cc2)cc1 [compound 71, (E)-Methyl 3-(3-(N-((4′-(prop-1-en-2-yl)-[1,1′-biphenyl]-4-yl)methyl)cyclohexanecarboxamido)phenyl) acrylate] | +++ (‘+++’ means Cmpd/Fex < 10) | 1000 to 10000
9 | COC(=O)/C=C/c1cccc(N(Cc2ccc(-c3cccc(C(C)C)c3)cc2)C(=O)C2CCCCC2)c1 [compound 47, (E)-Methyl 3-(3-(N-((3′-isopropyl-[1,1′-biphenyl]-4-yl)methyl)cyclohexanecarboxamido)phenyl) acrylate] | + (‘+’ means Cmpd/Fex > 100) | > 10000
10 | COC(=O)/C=C/c1cccc(N(Cc2ccc(-c3ccc(Cl)cc3)cc2)C(=O)C2CCCCC2)c1 [compound 34, (E)-Methyl 3-(3-(N-((4′-chloro-[1,1′-biphenyl]-4-yl)methyl)cyclohexanecarboxamido)phenyl)acrylate] | +++ (‘+++’ means Cmpd/Fex < 10) | 1000 to 10000

More lines, now with the values ahead:

Row | Cmpd/Fex (ratio of the EC50 for the test compound relative to the EC50 of the Fexaramine control) [1] | EC50 [2] [nM] | Structure (SMILES)
11 | ++ (‘++’ means Cmpd/Fex > 10 & < 100) | > 10000 | COC(=O)CCc1ccc(C)c(N(Cc2ccc(-c3ccc(N(C)C)cc3)cc2)C(=O)C2CCCCC2)c1 [compound 93, Methyl 3-(3-(N-((4′-(dimethylamino)-[1,1′-biphenyl]-4-yl)methyl)cyclohexanecarboxamido)-4-methylphenyl)propanoate]
12 | +++ (‘+++’ means Cmpd/Fex < 10) | ≤ 1000 | COC(=O)/C=C/c1cccc(N(Cc2ccc(-c3ccc(N(C)C)cc3)cc2)C(=O)C2CCCCCC2)c1 [compound 11, (E)-Methyl 3-(3-(N-((4′-(dimethylamino)-[1,1′-biphenyl]-4-yl)methyl)cycloheptanecarboxamido)phenyl)acrylate]
13 | +++ (‘+++’ means Cmpd/Fex < 10) | ≤ 1000 | CCOC(=O)/C=C/c1cccc(N(Cc2ccc(-c3ccc(N(C)C)cc3)cc2)C(=O)C2CCCCC2)c1 [compound 84, (E)-Ethyl 3-(3-(N-((4′-(dimethylamino)-[1,1′-biphenyl]-4-yl)methyl)cyclohexanecarboxamido)phenyl) acrylate]
14 | ++ (‘++’ means Cmpd/Fex > 10 & < 100) | 1000 to 10000 | COC(=O)/C=C/c1cccc(N(Cc2ccc(-c3ccc(N(C)C)cc3)cc2)C(=O)C2CCCCC2)c1C [compound 41, (E)-Methyl 3-(3-(N-((4′-(dimethylamino)-[1,1′-biphenyl]-4-yl)methyl)cyclohexanecarboxamido)-2-methylphenyl)acrylate]
15 | +++ (‘+++’ means Cmpd/Fex < 10) | ≤ 1000 | COC(=O)/C=C/c1cccc(N(Cc2ccc(-c3ccc(N(C)C)c(C)c3)cc2)C(=O)C2CCCCC2)c1 [compound 20, (E)-Methyl 3-(3-(N-((4′-(dimethylamino)-3′-methyl-[1,1′-biphenyl]-4-yl)methyl)cyclohexanecarboxamido)phenyl)acrylate]
16 | ++ (‘++’ means Cmpd/Fex > 10 & < 100) | 1000 to 10000 | COC(=O)CCc1cccc(N(Cc2ccc(-c3ccc(N(C)C)cc3)cc2)C(=O)C2CCCCC2)c1 [compound 43, Methyl 3-(3-(N-((4′-(dimethylamino)-[1,1′-biphenyl]-4-yl)methyl)cyclohexanecarboxamido)phenyl) propanoate]
